90 compounds from a melting point compilation (Tetko et al.; mined from patent text by program, amines drawn as free bases though some values may be those of a salt) can be followed below.

Some results are limits rather than exact numbers.

The melting point is the temperature, or range, at which the solid turns liquid. Take `CCN1c2ncc(CC(O)c3ccncc3)cc2C(=O)N(C)c2ccc(Cl)nc21` (stereo not given): the melting point lay in the range of 153 to 154 °C.

As to `CC1Cc2c(NN)c(Cl)cc(Cl)c2O1` (stereo not given), the melting point lay in the range of 59 to 64 °C. Compound `N#Cc1cc(-c2ccoc2)c2ccc(COc3cc(F)cc(-c4ccc(Cl)cc4Cl)c3)cc2n1` registered a melting point of 188 to 190 °C.

The compound `CCOc1ccc2c(c1)CCc1c(C#N)cccc1S2` displayed a melting point of 124 to 126 °C. To `CCOc1c(OC)cc([N+](=O)[O-])c2ncccc12` belongs 88 to 95 °C; to `CC(C)C(C)(NC(c1ccccc1)c1ccccc1)P(O)O` (stereo not given), 177 °C. Under `COc1ccc(N2CCN(c3ccc(OC)nc3-c3ccc(C)cc3)CC2)cc1` stands 143 to 146 °C.

`CCOC(=O)c1ccc(NC(C)=O)c(CN(CC)CC)c1` registered a melting point of 57 to 59 °C.

In the case of `CC(C)c1nc2c([nH]1)c(=O)[nH]c(=O)n2Cc1cccc(Cl)c1`, the melting point lay in the range of 319 to 321 °C. Under `CC(=O)c1nc2cc(C)c(F)cc2s1` stands 152 to 153 °C; under `Cc1cc(C(=O)N(C2CCCCC2)C2CCCC2)ccc1Cn1cnc2cccnc21`, 181 to 182 °C; under `CCOC(=O)C(=Cc1ccc(-c2cccc(NC)c2)cc1)OCC`, 52 °C. `COC(=O)c1c(F)cc(OCCNC(=O)C2Cc3ccccc3N2S(=O)(=O)c2ccc(-c3ccc(F)cc3F)cc2)cc1F` (stereo not given): the melting point lay in the range of 69 to 77 °C. To `CCCC(=O)N1N=C(c2ccc(N)cc2)c2cc(Cl)c(Cl)cc2CC1C` (stereo not given) belongs 193 to 194 °C.

For `O=C(C=Cc1cccc(S(=O)(=O)Nc2ccc3ccccc3c2)c1)NO`, the melting point stood at 164 °C. To `[O-][N+]1=C(c2ccccc2Cl)c2cc(Cl)ccc2C=CC1` belongs 196 to 197 °C; to `CS(=O)c1ccc(-c2nn3c(c2-c2ccncc2)NCCC3)cc1` (stereo not given), 201 to 202 °C; to `CCOc1nc(C2CC2)nc(OCC)c1C=O`, 86 to 87 °C. To `CC(=O)C(=NNc1ccccc1)C(=O)Nc1ccccc1` belongs 96 to 97 °C; to `COC(=O)C1(N)C(=O)Nc2ccccc2CC1c1ccccc1` (stereo not given), 201 °C; to `Cc1ccc(C(=O)NC(NC(=S)Nc2cccnc2)C(C)C)cc1` (stereo not given), 184 to 186 °C. To `COc1c(Cl)ccc(-c2cc(N)c(Cl)c(C(=O)NOCc3ccco3)n2)c1F` belongs 161 to 164 °C; to `CC(=O)OC1CSC(Oc2ccc(C)nc2)C(OC(C)=O)C1OC(C)=O` (stereo not given), 130 °C; to `COP1(=O)CC(O)C(Cl)C1` (stereo not given), 82 °C. `CN1CCN(c2ccc(S(=O)(=O)Oc3cccc(F)c3)cc2)C1=O`: the melting point is 175 to 177 °C. For `CC1(C)CCC(C)(C)c2cc(-c3cc(-c4ccc(CO)cc4)ccc3-c3ccccc3)ccc21`, the melting point was in the range of 134 to 136 °C. To `CNc1c(S(=O)(=O)C(F)(F)F)c(C#N)nn1-c1c(Cl)cc(C(F)(F)F)cc1Cl` belongs 227 °C; to `O=C(NCc1ccc(Cl)cc1)c1cnc2c(F)cc(Br)cc2c1`, 254 to 255 °C; to `O=C(O)C(F)Oc1ccc(Cl)cc1Cl` (stereo not given), 89 to 91 °C. The compound `O=Cc1coc(C(O)c2ccc(Br)cc2)c1` (stereo not given) registered a melting point of 83 to 84 °C. To `OC1=NC2CCCc3cccc(c32)N1` (stereo not given) belongs 230 to 233 °C. Consider `Cc1oc(Cl)cc1C(=O)O`, for which the melting point lay in the range of 126 to 127 °C.

As to `CCCCCCCc1ccc(-c2nc(-c3ccccc3Cl)nn2C)cc1`, the melting point was in the range of 64 to 67 °C. To `Cc1cc(-c2c(F)cc3c(=O)c(C(=O)O)cn4c3c2S(=O)CC4C)cc(C)n1` (stereo not given) belongs 294 to 295 °C; to `OC1CSC(Oc2cncc(-c3ccc(Cl)nc3)c2)C(O)C1O` (stereo not given), 211 °C. With `O=C1Cc2ccccc2C(=O)N1Cc1ccccc1F`, the melting point is 140 to 144 °C.

For the compound `CCOC(=O)Cc1ccc2c(c1)sc1c(Cl)cccc12`, the melting point was 62 to 64 °C.

In turn, `COc1ccc(-n2nc(C#N)cc2-c2ccc(S(C)(=O)=O)cc2)cc1Cl` gave a melting point of 201 to 203 °C. The compound `COc1ccc(OC)c(-c2ccc(C)cc2)c1` came in with a melting point of 65 to 66 °C. `CSc1cc(Cl)nn2c(-c3ccnc(N)c3)c(-c3ccc(F)c(C)c3)nc12` came in with a melting point of 237 to 238 °C.

For the compound `NS(=O)(=O)c1ccc(-c2[nH]c3ccccc3c2-c2ccc(O)cc2)cc1`, the melting point is 241 to 243 °C. Under `CC12CCC(O)CC1=CCC1C2CCC2(C)C(c3cncnc3)=CCC12` (stereo not given) stands 231 to 233 °C. To `COC(=O)c1ccc2c(c1)C(C#N)=CCC2` belongs 73 to 75 °C; to `CCOC(=O)c1cnc(SC)nc1NC`, 91 to 93 °C; to `Cc1cc(C(F)(F)F)c(-c2ccc(C[C@H](NC(=O)c3c(Cl)cccc3Cl)C(=O)O)cc2)c(=O)n1C`, 238 to 240 °C. To `O=C(COc1cc(-c2ccccc2)nc2ccccc12)N1CCCC1` belongs 135 °C. `CCCc1nc(O)c(-c2ccc(C)cc2)c(O)n1` displayed a melting point greater than 300 °C.

The compound `Cc1cc(-n2ccnc2)c2cccc(OCc3c(Cl)ccc(N(C)C(=O)CN4C(=O)c5ccccc5C4=O)c3Cl)c2n1` yielded a melting point of 200 to 203 °C. Take `O=C=NC(=O)CS(=O)(=O)c1ccc2ccccc2c1`: the melting point lay within 152 to 155 °C. Under `COc1ccc(C2CCCN(C)C2)c2c1NC(=O)C2` (stereo not given) stands 170 °C. Under `CC(c1oc2ccccc2c(=O)c1-c1cccc(F)c1)n1nc(-c2cc(F)c(O)c(F)c2)c2c(N)ncnc21` (stereo not given) stands 253 to 257 °C; under `Brc1c[nH]c2ccc(OCc3ccccc3)cc12`, 89 to 92 °C; under `O=C(Nc1ccc2c(c1)OCO2)O[C@@H]1CN=C(c2ccccc2)O[C@H]1c1ccccc1` (racemic), 138 °C.

With `CCCCc1c2c(nn1CCCC)c(N)nc1ccccc12`, the melting point lay within 143 to 145 °C. `S=C1Nc2ccccc2N2CCc3cccc1c32` came in with a melting point of 185 to 186 °C. Take `CCCCOC(=O)c1ccc2ccc(C)nc2c1O`: the melting point was 50 °C.

`O=C(Nc1nnn(CC2CC2)n1)C1c2ccccc2Oc2ccccc21`: the melting point fell in the range of 222 to 224 °C.

The compound `Cc1cc(NC2=NCCN2)n(C)n1` displayed a melting point of 167 to 169 °C.

`COc1cc(Br)cc(-c2ccc3nonc3c2)c1` came in with a melting point of 135 to 137 °C. The compound `NC(Cc1nc2cc(F)c(F)cc2nc1CP(=O)(O)O)C(=O)O` (stereo not given) registered a melting point of 144 to 145 °C.

Consider `CCCCCCCCCCCCCCCCN(CCO)CCCCCCN(CCO)CCCCCCCCCCCCCCCC`, for which the melting point lay within 29 to 30 °C. `O=C1NC(c2ccccc2)C(C(=O)NCCO[N+](=O)[O-])O1` (stereo not given) had a melting point of 122 to 124 °C. To `COc1ccc(C(=O)Cc2c(Cl)cncc2Cl)c2c1OCCO2` belongs 158 to 160 °C; to `COC(=O)Cc1cn(C(c2ccccc2)(c2ccccc2)c2ccccc2)cn1`, 122 to 125 °C; to `CC(C)N1OCCC(=Cc2cc(C(C)(C)C)c(O)c(C(C)(C)C)c2)C1=O`, 181 to 183 °C. For the compound `OCC1OC(SCCCc2ccccc2)C(O)C(O)C1O` (stereo not given), the melting point fell in the range of 122 to 123 °C. In the case of `O=c1c2c(O)c(O)ccc2c2cc(O)c(O)cc2n1Cc1ccc([N+](=O)[O-])cc1`, the melting point is 258 to 263 °C.

`CC(C)(C)c1cc(CCc2ccccc2NC(=O)NCCCc2ccccc2)cc(C(C)(C)C)c1O` gave a melting point of 161 to 162 °C. Regarding `CC(=O)Nc1ccc(OCCOc2ncc(Cl)cn2)cc1`, the melting point turned out to be 160 °C. `OC(CN1CCOCC1)c1cc(C(F)(F)F)nc2c(C(F)(F)F)cccc12` (stereo not given) had a melting point of 129 to 130 °C.

As to `CC(C)(C)OC(=O)Nc1cccc(Cn2nc(C(=O)O)c3c2-c2ccc(OCc4cncnc4)cc2CC3)c1`, the melting point was 226 °C.

`CSc1ccc(/C=C2/C(C)=C(CCCCN(O)C(N)=O)c3cc(F)ccc32)cc1` registered a melting point of 154 to 157 °C. In turn, `CC(=O)OCC(=O)C1(O)C(C)CC2C3CCC4CC(=O)CCC4(C)C3CCC21C` (stereo not given) returned a melting point of 125 °C. Under `CC(C)Oc1cc(NC(=O)C2CCCCN2)c(F)cc1Cl` (stereo not given) stands 96 to 98 °C. `Nc1cccc2c1COC2` gave a melting point of 85 to 89 °C. Under `CSc1c(Cl)nc(N2CCNCC2)nc1NC(C)C` stands 147 °C; under `C/C(=C(\C#N)C(N)=S)N1CCCN(c2ccccc2)CC1`, 151 to 153 °C. Under `COc1ccc2cc(CNCc3ccccc3)ccc2c1` stands 45 to 53 °C; under `CCOC(=O)CSC1=CCC2C3CCC4=CC(=O)C=CC4(C)C3(F)C(O)CC12C` (stereo not given), 144 to 145 °C; under `Nc1c(F)c(F)cc(C(=O)O)c1F`, 133 to 136 °C. The compound `O=C(O)C(CC(c1ccc(OCc2ccc3ccccc3n2)cc1)c1ccc(OCc2ccc3ccccc3n2)cc1)=NO` came in with a melting point of 104 to 108 °C. `OCC1OC(n2c(Cl)nc3cc(Br)c(Cl)cc32)C(O)C1O` (stereo not given) displayed a melting point of 140 to 142 °C.

With `CCOC(=O)C(=O)c1ccccc1Nc1c(Cl)cccc1Cl`, the melting point was 84 to 85.5 °C. To `CC(=O)OCC1OC(n2ccc3c(C)cccc32)C(OC(C)=O)C(OC(C)=O)C1OC(C)=O` (stereo not given) belongs 156 to 157 °C; to `COc1cccc(OC)c1-c1ccc(C[C@H](NC(=O)c2c(Cl)cc(-c3cscn3)cc2Cl)C(=O)O)cc1`, 186 °C; to `CC(=O)N(C(C)=O)c1cnn(-c2cccc(C(F)(F)F)c2)c(=O)c1-c1cccc(C(F)(F)F)c1`, 174 °C. To `Cn1c(COc2ccc(CC3SC(=O)NC3=O)cc2)nc2ccc(Oc3cccc(NC(=O)NCc4ccc(C(F)(F)F)cc4)c3)cc21` (stereo not given) belongs 128 to 132 °C; to `C/C(=C\c1ccc(OC(C)C)cc1Oc1ncc(C(F)(F)F)cc1Cl)C(=O)NS(=O)(=O)NCC1CCCO1` (stereo not given), 125 to 126 °C. Turning to `CCOC(=O)NNS(=O)(=O)c1ccc(C)cc1`, the melting point is 105 to 106 °C. Under `O=C1SCCN1Cc1ccc(Cl)cc1` stands 68 to 69 °C.
